Assay results reported in article PMC7687371, “Quantitative in Vitro to in Vivo Extrapolation (QIVIVE) for Predicting Reduced Anogenital Distance Produced by Anti-Androgenic Pesticides in a Rodent Model for Male Reproductive Disorders” (Environmental Health Perspectives, 2020).
Like-named read-outs stand apart in the source and are kept apart here. Marks after values point to notes of the source that are not given here.

Legend:
[1] = Fetal chemical exposure analysis (LC-QTOF) at GD21; format: in vivo, rat
Procedure, shortened: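 Rat dams killed at GD21; pooled fetal trunk plasma (by sex, per litter, ~90 min post-dose) and amniotic fluid stored at −80 °C. Samples extracted with acetonitrile (C-18 cleanup) and analysed by positive-ESI LC-QTOF; quantified from (M+H)+ extracted-ion chromatograms ±0.005 Da against matrix-matched plasma standards.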

[2] = cited from earlier work
[3] = PBK model first-order kinetic parameters fitted to in vivo ADME data; set-up: species or system rat; conditions: PBK model parameter; for Metabolism rate in liver, Total (L/h) KMetab: metabolic clearance
[4] = set-up: method as in U.S. EPA 2012; conditions: EPI Suite, experimental preferred over modeled; ref U.S. EPA 2012; cited from earlier work
[5] = tested on: NCI-H295R cells; assay: H295R steroidogenesis assay; format: cell-based, human; conditions: for Effect on androgen (steroid) synthesis, in words: H295R steroidogenesis assay; for IC50 / IC20: Homo sapiens; for IC50: 48 h; for IC20: read-out: Testosterone inhibition (IC20 µM)
Procedure, shortened: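 Human adrenocortical NCI-H295R cells exposed 48 h to compounds in 2-fold dilutions from 0.8 to 50 μM (0.1% DMSO), three independent experiments. Ten steroid hormones in medium measured by LC-MS/MS and normalized to solvent controls; viability checked by MTT.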

[6] = NCI-H295R, read-out: Testosterone inhibition (IC50, μM)

With `COc1ccc(C(=CC(=O)N2CCOCC2)c2ccc(Cl)cc2)cc1OC` [Dimethomorph, dimethomorph] as the compound, how does the “Measured concentration in male fetuses” value ([1]; fetal plasma GD21, dams dosed 20 mg/kg BW per day (Study 3)) read?
Its value is 1.35 µM.

What about the “Unbound plasma fraction (%)” value ([2]; plasma) of the same compound?
Its value is 9.4^g %.

What about the “Fecal excretion rate from gut (L/h) KFeces” value (“Fecal excretion rate from gut” for short) [3] of the same compound?
Its value is 2 L/h.

What about the “Portal GI absorption rate into liver (L/h) KAS” value [3] of the same compound?
The value was 1 L/h.

What about the “Urine excretion rate from kidney (L/h) KUrine” value (“Urine excretion rate” below) [3] of the same compound?
Its value is 0.01 L/h.

What about the “Metabolism rate in liver, Total (L/h) KMetab” value [3] of the same compound?
Its value is 0.3 L/h.

What about the “log Kow” value [4] of the same compound?
Its value is 2.68.

And the “Androstenedione (relative to controls), mean” value ([5]; 0.8 µM)?
Its value is 0.83.

What about the “Testosterone (relative to controls), mean” value ([5]; 0.8 µM) of the same compound?
The value was 0.88.

And the “Androstenedione (relative to controls), mean” value ([5]; 1.6 µM)?
Its value is 0.81.

And the “Testosterone (relative to controls), mean” value ([5]; 1.6 µM)?
The value was 0.84.

What about the “Androstenedione (relative to controls), mean” value ([5]; 3.1 µM) of the same compound?
The value was 0.80.

What about the “Testosterone (relative to controls), mean” value ([5]; 3.1 µM) of the same compound?
The value was 0.76.

And the “Androstenedione (relative to controls), mean” value ([5]; 6.3 µM)?
Its value is 0.89.

And the “Testosterone (relative to controls), mean” value ([5]; 6.3 µM)?
Its value is 0.74.

And the “Androstenedione (relative to controls), mean” value ([5]; 12.5 µM)?
The value was 0.77.

What about the “Testosterone (relative to controls), mean” value ([5]; 12.5 µM) of the same compound?
Its value is 0.68.

What about the “Androstenedione (relative to controls), mean” value ([5]; 25 µM) of the same compound?
Its value is 0.70.

What about the “Testosterone (relative to controls), mean” value ([5]; 25 µM) of the same compound?
Its value is 0.73.

What about the “Androstenedione (relative to controls), mean” value ([5]; 50 µM) of the same compound?
The value was 0.67.

And the “Testosterone (relative to controls), mean” value ([5]; 50 µM)?
The value was 0.67.

And the “Effect on androgen (steroid) synthesis, in words” value (from here on “Effect on androgen”) [5]?
Its value is “inhibited testosterone synthesis”.

And the IC50 [5, 6]?
Its IC50 is > 50 µM.

What about the IC20 ([5]; NCI-H295R) of the same compound?
The IC20 was 2.8 µM.

And the “Corticosterone, LOEC” value ([5]; multiple contrast tests)?
The value was 0.8 µM.

And the “DHEA, LOEC” value ([5]; multiple contrast tests)?
Its value is 25 µM.

And the “Estradiol, LOEC” value ([5]; multiple contrast tests)?
Its value is 0.8 µM.

And the “OH-Progesterone, LOEC” value ([5]; multiple contrast tests)?
The value was 12.5 µM.

With `N#Cc1c[nH]cc1-c1cccc2c1OC(F)(F)O2` [Fludioxonil, fludioxonil] as the compound, how does the “Measured concentration in male fetuses” value ([1]; fetal plasma GD21, dams dosed 60 mg/kg BW per day (Study 3)) read?
The value was 3.3 µM.

And the “Unbound plasma fraction (%)” value ([2]; ref Wetmore et al. (2012))?
Its value is 0.5^g %.

What about the “Fecal excretion rate from gut” value [3] of the same compound?
The value was 3 L/h.

What about the “Portal GI absorption rate into liver (L/h) KAS” value [3] of the same compound?
The value was 1 L/h.

What about the “Urine excretion rate” value [3] of the same compound?
Its value is 0.01 L/h.

And the “Metabolism rate in liver, Total (L/h) KMetab” value [3]?
The value was 0.3 L/h.

And the “log Kow” value [4]?
The value was 4.12.

What about the “Effect on androgen” value [5] of the same compound?
The value was “inhibited testosterone synthesis”.

And the IC50 ([5]; NCI-H295R cells, NA = not active up to 50μM, read-out: Testosterone inhibition (IC50))?
Its IC50 is 10.8 µM.

And the IC20 ([5]; NCI-H295R cells)?
The IC20 was 1.3 µM.

And the “Androstendione, LOEC” value ([5]; multiple contrast tests)?
Its value is 25 µM.

And the “Corticosterone, LOEC” value ([5]; multiple contrast tests)?
The value was 12.5 µM.

What about the “Estradiol, LOEC” value ([5]; multiple contrast tests) of the same compound?
The value was 3.1 µM.

And the “OH-Progesterone, LOEC” value ([5]; multiple contrast tests)?
The value was 3.1 µM.

And the “Testosterone, lowest observed effect concentration (LOEC)” value ([5]; multiple contrast tests)?
Its value is 1.6 µM.

With `CC12CC1(C)C(=O)N(c1cc(Cl)cc(Cl)c1)C2=O` (stereo not shown) [Procymidone, procymidone, reference compound] as the compound, how does the “Measured concentration in male fetuses” value ([1]; male, Sprague-Dawley, rat, in vivo, 40 mg/kg/day) read?
Its value is 7.8 µM.

And the “Fecal excretion rate from gut” value [3]?
Its value is 0.04 L/h.

What about the “Urine excretion rate” value [3] of the same compound?
The value was 0.08 L/h.

What about the “log Kow” value [4] of the same compound?
Its value is 3.08.

And the “Effect on androgen” value [5]?
The value was “inhibited the synthesis of androgens”.

What about the IC50 [5, 6] of the same compound?
The IC50 was 6 µM.
